Laboratory results as given in US8778946B2, “3-substituted-6-(pyridinylmethoxy)-pyrrolopyridine compounds” (Eli Lilly and Company, priority 2010, dated 2014).
Where “and” joins values, the source holds several entries; their conditions need not be identical. Equal entries are not always repeated. Marks after values point to notes of the source that are not given here.

Legend:
[1] = tested on: C57/black 6J male mice; assay: Basal (habituated) locomotor activity; assay type: in vivo
Procedure: (§1) Anti-Parkinson effects of compounds of the invention can be determined using procedures well known in the art such as animal models of locomotor activity. For example, compounds of the invention show effects on basal (habituated) locomotor activity and on reserpine-induced akinesia in C57/black 6J male mice.
Locomotor activity is measured using an automated system to track movement in mice. Mice are placed in chambers and allowed to habituate to the chambers for 30 mins. During this time they show reduced locomotion over time. Following administration of a compound of the invention, animal movement is restored to pre-habituation levels.
More specifically, locomotor activity boxes [40×40×40 cm clear arenas] are situated in groups of 4 placed on infrared tables and testing is performed in the dark. Locomotor activity is recorded and measured using infrared video tracking. Locomotor activity is recorded between time of 8:30 and 17:00 hours. In some instances locomotor activity is measured using open fields which use infrared beam breaks as a measure of movement.
(§2) Mice are randomly assigned to treatment groups. Each mouse is placed individually into one of the locomotor activity boxes. Distance moved (cm) is recorded per 5 minutes for each mouse. Exploratory behavior is assessed for the following 30 minutes. After 30 minutes recording stops and mice are dosed p.o. with the test compound or vehicle in a volume of 10 ml/kg. Once all mice have been dosed, locomotor activity recording is started for a further 120 minutes to assess the effect of treatment on habituated locomotor activity. Data is transferred from the software/computers to spreadsheets for further analysis. Statistical analysis is carried out using Statistica 8.0. One way ANOVA on TOTAL distance moved, with Treatment group as the between factor, is calculated. If a significant Treatment effect (p≦0.05) is observed then post-hoc analysis is performed, either Fishers' LSD or Dunnetts' test.

[2] = tested on: C57/black 6J male mice; assay: Reversal of reserpine-induced akinesia; assay type: in vivo
Procedure: as §1
Reserpine is a catecholamine depleting agent (depletes dopamine and noradrenaline) and 18-24 hours after treatment mice become akinetic and have reduced locomotor activity counts. Reserpine-induced akinesia is assessed by measuring the effect of compounds on locomotor activity approximately 18-24 hours after a single dose of 1 mg/kg reserpine i.p. The equipment used is the same as that used for basal locomotor activity (above).
as §2, with “Basal and reserpine-induced exploratory” for “Exploratory”, “compound” for “compound or vehicle”, “dosed” for “dosed,”, “akinesia.” for “habituated locomotor activity.”

[3] = target: T1, human mGluR5 (Homo sapiens, UniProt P41594); assay: Human mGluR5 in vitro functional assay (FLIPR calcium, antagonism of glutamate EC90 response); assay type: cell-based; conditions: AV-12 cells expressing recombinant human mGlu5a, relative IC50
T1 construct: expressed in transfected cells; host or cells: AV-12 cells containing the rat EAAT1 glutamate transporter
T1 sequence (P41594 21-1180 isoform P41594-2 limits assumed): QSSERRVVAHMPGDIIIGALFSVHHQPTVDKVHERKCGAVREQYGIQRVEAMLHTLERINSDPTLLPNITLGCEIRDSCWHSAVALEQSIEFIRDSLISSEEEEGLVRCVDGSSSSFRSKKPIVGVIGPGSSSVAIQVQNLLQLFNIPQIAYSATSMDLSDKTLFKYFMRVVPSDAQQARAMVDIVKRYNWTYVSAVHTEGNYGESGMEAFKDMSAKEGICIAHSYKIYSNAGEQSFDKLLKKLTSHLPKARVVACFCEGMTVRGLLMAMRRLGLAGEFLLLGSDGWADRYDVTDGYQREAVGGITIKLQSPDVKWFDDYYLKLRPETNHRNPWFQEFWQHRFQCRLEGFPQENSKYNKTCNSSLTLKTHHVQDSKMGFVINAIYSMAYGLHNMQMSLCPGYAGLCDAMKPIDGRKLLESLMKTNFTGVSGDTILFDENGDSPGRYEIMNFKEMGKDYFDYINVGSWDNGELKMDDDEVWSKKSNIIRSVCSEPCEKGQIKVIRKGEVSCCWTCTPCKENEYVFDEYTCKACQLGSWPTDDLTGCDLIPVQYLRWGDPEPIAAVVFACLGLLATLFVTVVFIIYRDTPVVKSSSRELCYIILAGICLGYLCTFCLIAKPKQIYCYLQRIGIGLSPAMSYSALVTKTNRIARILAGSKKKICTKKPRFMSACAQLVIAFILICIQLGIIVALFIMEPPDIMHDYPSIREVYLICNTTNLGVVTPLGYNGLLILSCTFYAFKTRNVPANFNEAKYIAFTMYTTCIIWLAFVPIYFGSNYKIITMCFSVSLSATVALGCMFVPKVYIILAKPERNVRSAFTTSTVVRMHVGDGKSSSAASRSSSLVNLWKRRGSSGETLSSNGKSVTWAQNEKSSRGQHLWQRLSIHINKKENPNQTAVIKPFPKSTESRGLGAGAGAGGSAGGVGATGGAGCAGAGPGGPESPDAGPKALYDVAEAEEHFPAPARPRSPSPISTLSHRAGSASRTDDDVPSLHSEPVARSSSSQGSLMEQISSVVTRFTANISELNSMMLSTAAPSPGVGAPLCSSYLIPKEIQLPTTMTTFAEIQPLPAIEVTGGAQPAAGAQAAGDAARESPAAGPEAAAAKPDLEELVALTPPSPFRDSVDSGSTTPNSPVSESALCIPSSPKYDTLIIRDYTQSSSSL
Text: (§3) The activation of G-protein coupled receptors (GPCRs) that are coupled to Gq proteins results in a change in intracellular calcium concentration. This functional response can be measured in a kinetic assay using calcium-sensitive dyes and a fluorescent imaging plate reader using a standard technique known as FLIPR (MDS Analytical Technologies, Sunnyvale, Calif.).
(§4) Stable cell line preparation and assay techniques are adapted from Kingston, A. E., et. al. (1995) Neuropharmacology 34: 887-894. […]
(§5) For the functional assays, cells are seeded in growth medium lacking selection antibiotics at a density of 65K per well into 96-well, black/clear bottom, poly-D-lysine coated microplates and incubated for 18-20 hours prior to the experiment. […] The antagonist effects of compounds are quantified in the FLIPR instrument in 10-point dose curves by comparing the peak fluorescent responses to the agonist glutamate in the presence and absence of compound. Specifically, the compound effect is measured as maximal minus minimal peak heights in relative fluorescent units corrected for basal fluorescence as measured in the absence of glutamate. All data are calculated as relative IC50 values using a four-parameter logistic curve fitting program (Activity Base® v5.3.1.22).

[4] = target: T2, human mGluR1 (Homo sapiens, UniProt Q13255); assay: Human mGluR1 in vitro functional assay (FLIPR calcium, antagonism of glutamate EC90 response); assay type: cell-based; conditions: AV-12 cells expressing recombinant human mGlu1α, relative IC50
T2 construct: expressed in transfected cells; host or cells: AV-12 cells containing the rat EAAT1 glutamate transporter
T2 sequence (Q13255 19-1194): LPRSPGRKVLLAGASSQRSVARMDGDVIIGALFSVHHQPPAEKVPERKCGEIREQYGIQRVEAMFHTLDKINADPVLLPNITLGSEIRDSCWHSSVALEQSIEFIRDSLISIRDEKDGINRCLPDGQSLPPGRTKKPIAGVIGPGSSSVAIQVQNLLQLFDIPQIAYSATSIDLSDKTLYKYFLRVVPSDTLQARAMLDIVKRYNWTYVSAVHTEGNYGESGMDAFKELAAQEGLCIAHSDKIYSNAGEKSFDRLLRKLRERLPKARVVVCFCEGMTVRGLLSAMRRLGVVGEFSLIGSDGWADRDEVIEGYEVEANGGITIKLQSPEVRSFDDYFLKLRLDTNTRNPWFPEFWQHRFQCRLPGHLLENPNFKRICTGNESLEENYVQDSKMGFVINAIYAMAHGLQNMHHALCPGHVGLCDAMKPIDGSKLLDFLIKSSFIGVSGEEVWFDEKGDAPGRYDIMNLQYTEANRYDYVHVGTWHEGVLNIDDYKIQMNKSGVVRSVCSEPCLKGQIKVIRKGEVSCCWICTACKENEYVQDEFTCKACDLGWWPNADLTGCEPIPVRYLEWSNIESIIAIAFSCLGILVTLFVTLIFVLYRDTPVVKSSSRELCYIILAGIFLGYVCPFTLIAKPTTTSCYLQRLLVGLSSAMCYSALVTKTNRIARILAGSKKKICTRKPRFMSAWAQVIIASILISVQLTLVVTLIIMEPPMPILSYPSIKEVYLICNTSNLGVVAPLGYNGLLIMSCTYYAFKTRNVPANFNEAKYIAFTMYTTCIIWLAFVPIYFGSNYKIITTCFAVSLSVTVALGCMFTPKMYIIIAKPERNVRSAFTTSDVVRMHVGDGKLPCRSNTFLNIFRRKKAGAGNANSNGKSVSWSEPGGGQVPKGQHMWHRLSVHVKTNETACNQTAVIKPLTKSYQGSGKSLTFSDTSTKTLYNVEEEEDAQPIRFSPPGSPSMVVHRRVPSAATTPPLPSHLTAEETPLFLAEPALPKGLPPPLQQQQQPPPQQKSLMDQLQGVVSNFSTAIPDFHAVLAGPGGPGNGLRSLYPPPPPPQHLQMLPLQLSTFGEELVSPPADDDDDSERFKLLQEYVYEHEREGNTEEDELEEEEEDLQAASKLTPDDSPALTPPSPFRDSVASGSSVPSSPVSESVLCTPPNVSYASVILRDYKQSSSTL
Text: as §3, §4, §5

[5] = tested on: male Fischer F-344 Sasco rats; assay: Attenuation of stress-induced hyperthermia in rats; assay type: in vivo; conditions: oral, 60-min pretreatment
Procedure: Stress-induced hyperthermia is attenuated by clinical anxiolytics and is widely used preclinically to predict anxiolytic efficacy of compounds.
In separate studies, male Fischer F-344 Sasco rats are dosed orally with 0.3, 1, 3, or 10 mg/kg of test compound in a vehicle consisting of 1% carboxymethylcellulose, 0.25% polysorbate 80, 0.05% antifoam (dose volume=1 ml/kg). The mGluR5 receptor antagonist MTEP (3-[(2-methyl-1,3-thiazol-4-yl)ethynyl]pyridine) (10 mg/kg, PO) is used as a quality control. Following a 60-min pretreatment period, core baseline body temperature is measured (T1, in degrees C.) and then ten minutes later a second body temperature measurement is recorded (T2). The change in body temperature (T2 minus T1) is defined as the stress-induced hyperthermic response. The efficacious dose is the dose at which a compound produces a 35% reduction in stress-induced hyperthermia, relative to the vehicle response, and is defined as the T35 dose.

[6] = tested on: Male, NIH-Swiss mice; assay: Mouse forced-swim; assay type: in vivo
Procedure: Male, NIH-Swiss mice (20-25 g, Harlan Sprague-Dawley, Indianapolis, Ind.) are used in a method modified from that of Porsolt R D, Le Pichon M, Jalfre M Depression: a new animal model sensitive to antidepressant treatments. Nature. 1977 Apr. 21; 266(5604):730-2. Mice are placed in clear plastic cylinders (diameter 10 cm; height: 25 cm) filled to 6 cm with 22-25° C. water for six min. The duration of immobility is recorded during the last 4 min of a six-minute trial. A mouse is regarded as immobile when floating motionless or making only those movements necessary to keep its head above the water. Data are analyzed by post-hoc Dunnett's test with alpha level set at 0.05. The amount of time spent immobile is measured. Means+S.E.M. are subjected to ANOVA followed by Dunnett's test with p<0.05 set as the error rate for statistical significance. ED60 values are extrapolated from the linear portion of the dose-effect curve and represent the dose predicted to decrease basal immobility (100% at 0 mg/kg compound) by 60%. The maximal decrease in immobility time is calculated using the largest decrease in immobility produced at any dose of a compound with this formula: (100-immobility with compound/immobility under vehicle control) %.

[7] = reserpine 1 mg/kg i.p. + 3 mg/kg p.o. test compound
[8] = reserpine 1 mg/kg i.p. + 10 mg/kg p.o. test compound

Compound | Basal Locomotor Activity (mean distance moved (cm) in 120 min) ([1]; 3 mg/kg p.o.) | Basal Locomotor Activity (mean distance moved (cm) in 120 min) ([1]; 10 mg/kg p.o.) | Reversal of Reserpine-Induced Akinesia (mean distance moved (cm) in 120 min) [2, 7] | Reversal of Reserpine-Induced Akinesia (mean distance moved (cm) in 120 min) [2, 8] | further results
CC(C)OC(=O)N1CCN(c2cn(C)c3nc(OCc4ccccn4)ccc23)C(=O)C1 [Example 4, 1-Methylethyl 4-[1-methyl-6-(pyridin-2-ylmethoxy)-1H-pyrrolo[2,3-b]pyridin-3-yl]-3-oxopiperazine-1-carboxylate] | 30715.2 ** cm | 39935.6 *** cm | 16474.1 + cm | 23394.4± **+++ cm | –
CCOC(=O)N1CCN(c2cn(C)c3nc(OCc4ccccn4)c(C)cc23)C(=O)C1 [Example 28, Ethyl 4-[1,5-dimethyl-6-(pyridin-2-ylmethoxy)-1H-pyrrolo[2,3-b]pyridin-3-yl]-3-oxopiperazine-1-carboxylate] | 25074.1 ** cm | 32866.2 *** cm | 7848.9 cm | 14087.6 **+++ cm | –
CCOC(=O)N1CCN(c2cn(C)c3nc(OCc4ccccn4)c(Cl)cc23)C(=O)C1 [Example 27, Ethyl 4-[5-chloro-1-methyl-6-(pyridin-2-ylmethoxy)-1H-pyrrolo[2,3-b]pyridin-3-yl]-3-oxopiperazine-1-carboxylate] | 35290.1 *** cm | 36889.1 *** cm | 27053.7 ***+++ cm | 23432.5 **+++ cm | –
COC(=O)[C@H]1[C@H]2C[C@@H]3c4[nH]c5cc(OC)ccc5c4CCN3C[C@H]2C[C@@H](OC(=O)c2cc(OC)c(OC)c(OC)c2)[C@@H]1OC [reserpine, Reserpine, reference compound] | – | – | – | – | mean distance moved (cm) in 120 min, reserpine alone ([2]; 18-24 hours after single dose of 1 mg/kg reserpine i.p., no test compound, 1 mg/kg): 4118.6 cm and 7331.1 cm and 4597.2 cm and 6150 cm
CCn1cc(N2CCN(C(=O)OC)CC2=O)c2ccc(OCc3ccccn3)nc21 [Example 23, methyl 4-[1-ethyl-6-(pyridin-2-ylmethoxy)-1H-pyrrolo[2,3-b]pyridin-3-yl]-3-oxopiperazine-1-carboxylate] | 21628.2 ** cm | 31070.8 *** cm | – | – | –
CCOC(=O)N1CCN(c2cn(C)c3nc(OCc4ccccn4)ccc23)C(=O)C1 [Example 1, ethyl 4-[1-methyl-6-(pyridin-2-ylmethoxy)-1H-pyrrolo[2,3-b]pyridin-3-yl]-3-oxopiperazine-1-carboxylate] | 15980 *** cm | 25109 *** cm | 23611 ***+++ cm | – | IC50 [3]: 184 nM; IC50 [4]: > 12500 nM; Basal Locomotor Activity (mean distance moved (cm) in 120 min) ([1]; 1 mg/kg p.o.): 12147 ** cm; Reversal of Reserpine-Induced Akinesia (mean distance moved (cm) in 120 min) ([2]; reserpine 1 mg/kg i.p. + 1 mg/kg p.o. test compound): 15392 ++ cm; Reversal of Reserpine-Induced Akinesia (mean distance moved (cm) in 120 min) ([2]; reserpine 1 mg/kg i.p. + 30 mg/kg p.o. test compound): 32607 ***+++ cm; T35 dose (dose producing a 35% reduction in stress-induced hyperthermia relative to vehicle) [5]: 0.55 mg/kg; ED60 dose, reduction in forced swim immobility ([6]; extrapolated from linear portion of dose-effect curve): 8.6 mg/kg; maximal decrease in immobility ([6]; largest decrease at any dose relative to vehicle control): 50.6%; melting point: 143.42 °C
CCCOC(=O)N1CCN(c2cn(C)c3nc(OCc4ccccn4)ccc23)C(=O)C1 [Example 3, Propyl 4-[1-methyl-6-(pyridin-2-ylmethoxy)-1H-pyrrolo[2,3-b]pyridin-3-yl]-3-oxopiperazine-1-carboxylate] | 28458.8 *** cm | 39857.5 *** cm | – | – | T35 dose (dose producing a 35% reduction in stress-induced hyperthermia relative to vehicle) [5]: 0.93 mg/kg
